Data taken from patent US9662329B2, “Use of survivin antagonists in polyomavirus-related disease” (University of Pittsburgh—Of the Commonwealth System of …, priority 2012, dated 2017).

Key:
[1] = tested on: MCV-negative MCC cell line; experiment: Cell-Titer Glo growth inhibition by YM155; assay type: cell-based, human; details: MCV-negative vs MCV-positive MCC cells
Experimental: Serial drug dilutions from 10^−4 M to 10^−9 M were used on MCC and non-MCC cell lines. Cells were seeded into 384-well plates at 6000 cells in 50 μl of medium per well. After 24 hours, 25 μl of 3× drugs were added at increasing concentration to each well. Cell viability was then measured using Cell Titer Glo (Promega) kit following manufacturer's instructions as described previously. Each drug concentration was tested in triplicate for each cell line and experiments were repeated twice. EC50 doses for the drugs were calculated using a four parameter logistic equation (GraphPad Prism).

BJ cells = experiment: Trypan blue dye exclusion assay; assay type: cell-based, human; details: 48 h
Experimental: (§1) Cells were equally seeded and treated with YM155 for 48 hours. To count blue stained dead cells, cells were treated with Accutase (Millipore), collected, resuspended in PBS, mixed with equal volume of Trypan blue (Lonza, 0.4%) and counted using a hemocytometer under the microscope. The counts were done in triplicate and the experiment was repeated three times.

UISO cells = experiment: Trypan blue dye exclusion assay; assay type: cell-based, human; details: 48 h
Experimental: as §1

MKL-1 cells [2] = experiment: Immunoblotting for cPARP, cCaspase 3 and LC3; assay type: cell-based, human; details: 100 nM, 48 hours
MKL-1 cells [3] = experiment: Cell cycle analysis (PI and BrdU staining); assay type: cell-based, human; details: 12 h, YM155 100 nM, camptothecin 1 μM
Experimental: MKL-1 cells were treated with Accutase (Millipore) to break clumps and then resuspended in fresh medium containing drug and treated for 12 hours. Three hours before harvest 10 μM Bromodeoxyuridine (BrdU) was added. Cells were then harvested and fixed in chilled 70% ethanol and left overnight. The next day cells were washed, resuspended in 200 μl of 2M HCl/Triton X (1%) and incubated for 30 mins at room temperature. Cells were then centrifuged at 2000 rpm for 10 mins and neutralized in 200 μl of 0.1M sodium tetraborate, pH 8.5 solution. Cells were then washed, suspended in 20 μl of PBS containing 0.5% tween20, 1% donkey serum and 2ul of anti-BrdU antibody (1:10 diution, BD Biosciences) and incubated overnight at 4° C. Cells were then washed and incubated with secondary antibody-anti mouse Alexa488 (1:1000) for 1 hour at room temperature. Cells were finally washed, suspended in PBS containing 100 μg/ml of RNase A, 50 μg/ml of PI (propidium iodide) and 0.05% Triton X and incubated for 30 mins at 37° C. in the dark. The cells were then subjected to FACS using the accuri C6 flow cytometer (UPCI shared resources).

MKL-1 cells [4] = experiment: Cell death evaluation by CFDA and PI staining; assay type: cell-based, human; details: 100 nM
Experimental: Upon harvesting cells are resuspended in 2 ml of PBS containing 4 μg/ml PI (propidium iodide, Sigma) and 10 μM Carboxy fluorescin diacetate (CFDA, Invitrogen) at room temperature for 10 mins. Cells were then rinsed in 1× PBS and then examined under the microscope. Quantitation was done using ImageJ software.

[5] = tested on: human MKL-1 MCC xenografts
Experimental: Compounds were dissolved in sterile 0.9% saline solution for administration to animals.
Six-week-old female triple immune-deficient NSG (Nod-SCID gamma) mice (Jackson Laboratory) were maintained in a specific pathogen-free environment.
(§2) MCC cells were checked for viability >90% by trypan blue staining, resuspended in PBS (2×10^7 cells in 100 μl) and inoculated subcutaneously into the right flank of mice.
(§3) All treatments were delivered for three consecutive weeks. […] YM-155 (2 mg/kg) was given intraperitoneally on five consecutive days, followed by a two-day treatment free interval.
Two-tailed paired Student's t test was used to analyze statistical differences in qRT-PCR results. Mouse survival curves were estimated using the Kaplan-Meier product-limit method and were compared using the log-rank test (GraphPad Software, La Jolla, Calif.). A piecewise linear hierarchical Bayesian model (Zhao et al., Bayesian hierarchical changepoint methods in modeling the tumor growth profiles in xenograft experiments. Clinical Cancer Res 17, 1057 (Mar. 1, 2011)) was used to characterize differences in tumor volumes and growth between treatments.
Cells of Merkel cell polyomavirus (+) carcinoma cell lines MKL-1, MS-1, WaGa, and MKL-2 were checked for viability >90% by trypan blue staining, resuspended in PBS (2×10^7 cells in 100 μl) and inoculated subcutaneously into the right flank of mice.
YM-155 was given intraperitoneally on five consecutive days, followed by a two-day treatment free interval. For YM155 this treatment continued for three weeks or until mice were euthanized. Mice were euthanized upon showing a tumor having a diameter of 20 mm, or upon a showing of significant distress (>20% weight loss or when they became moribund). Caliper measurements of the longest perpendicular tumor diameters were performed every other day and tumor volumes were calculated using the formula: (width)^2×(length/2). Survival was defined as time from the first day of treatment until death/sacrifice.

[6] = tested on: MS-1 (MCV-positive) and UISO (MCV-negative) cell xenografts; experiment: MS-1 and UISO xenograft drug treatment; assay type: in vivo, NSG mice; details: end of three week treatment period; MS-1 and UISO xenografts
Experimental: as §2, §3

MKL-2 xenografts = experiment: MKL-2 xenograft drug treatment; assay type: in vivo, NSG mice; details: continuously at 4 mg/kg
survivin = experiment: qRT-PCR for survivin in xenograft tumor tissues; assay type: in vivo, mice; details: 2 mg/kg vs saline
Experimental: Column represents mean and error bars represent standard deviation. Experiment was done in triplicate (Mean±SEM).
RNA was extracted from cell lysates using Trizol reagent (Invitrogen) and cDNA was synthesized using SuperScript III First Strand Synthesis (Invitrogen). Quantitative real-time PCR for survivin was performed on cDNA using the SYBR green method (based on manufacturer's protocol, Applied Biosystems). […] The relative change in expression was calculated using the Pffal method (Pfaffl, A new mathematical model for relative quantification in real-time RT-PCR. Nucleic Acids Research 29, e45 (May 1, 2001)). Experiments were repeated six times (2 biological repeats with 3 technical replicates each).

[7] = three weeks treatment, bortezomib 1 mg/kg twice weekly, YM155 2 mg/kg 5 times weekly

Compound: COCCn1c2c([n+](Cc3cnccn3)c1C)C(=O)c1ccccc1C2=O.[Br-] [YM155, 1-(2-methoxyethyl)-2-methyl-4,9-dioxo-3-(pyrazin-2-ylmethyl)-4,9-dihydro-1H-naphtho[2,3-d]imidazol-3-ium bromide]
- concentrations inhibiting MCV-negative MCC cell line growth, higher than for MCV-positive MCC cells [1]: 1-2 orders of magnitude
- cell killing, trypan blue vital dye exclusion (BJ cells): resistant
- cell killing, trypan blue vital dye exclusion (UISO cells): relatively less sensitive
- LC3-II accumulation (marker for cell autophagy) (MKL-1 cells [2]): did not initiate LC3-II accumulation
- apoptosis measured by caspase 3 and PARP cleavage (MKL-1 cells [2]): No evidence of apoptosis
- BrdU incorporation (MKL-1 cells [3]): ablates BrdU incorporation in all phases of the cell cycle
- time to initiation of programmed cell death (PI positive, CFDA negative) (MKL-1 cells [4]): 12 to 24 h
- survival after initiation of treatment ([5]; Example 2, 2 mg/kg for three weeks): almost two months
- survival after treatment began ([5]; Example 2, continuously at 4 mg/kg): more than three months
- tumor growth after treatment was stopped ([5]; after single 3-week course, 2 mg/kg): all tumors resumed growth once YM155 was stopped
- tolerability / adverse effects in mice ([5]; bortezomib 1 mg/kg twice weekly, YM155 2 mg/kg 5 times weekly): well-tolerated and no adverse effects or acute toxicities were noted
- mice dying during treatment (up to day 19) [5, 7]: none
- xenograft tumor growth / progression during treatment [5, 7]: markedly delayed MKL-1 xenograft growth
- final tumor volumes, % (median) of saline-treated control mice [6]: 43-55%
- animals surviving, of 10 (MKL-2 xenografts): three survived more than four months
- survivin levels in xenograft tumors (qRT-PCR) (survivin): Lower survivin levels
